Reference: PubChem BioAssay AID179 (DTP/NCI, 2004)
Activity calls are given as the source filed them.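 How the source made its calls: active means compounds giving half or more protection of infected cells from virus-caused growth loss, again on retest; inactive means the rest.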 Where a SMILES comes first, the peptide text is derived from it. The star is where a group is joined. Cbz = O=C(OCc1ccccc1)*

Tested on: CEM cells HIV-1 protection, formazan growth assay
Test: NCI AIDS Antiviral Assay
Conditions: for IC50: measured here: growth of uninfected CEM cells
Outline: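 Category rules: moderately active means at least 50% protection on retest, and confirmed active means 100% protection reproducibly. The underlying data came from a formazan growth assay in HIV-1-infected CEM cells.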

SMILES	EC50	IC50	outcome
Nc1ccc(Cl)cc1C(=O)N1CCN(c2ccc([N+](=O)[O-])cn2)CC1	> 132 µM	27.5 µM	
Cc1ccc2ccccc2c1CSc1ncnc2c1ncn2C1OC(CO)C(O)C1O (stereo not given)	> 200 µM	24.5 µM	
C[n+]1c(-c2ccc(/C=N/NC(=O)c3ccc(C(=O)N/N=C/c4ccc(-c5cn6ccccc6[n+]5C)cc4)nc3)cc2)cn2ccccc21	2.63 µM	21.9 µM	
CC(=O)C1C(=O)C(=O)N(c2cccc([N+](=O)[O-])c2)C1=O (stereo not given)	> 200 µM	> 200 µM	
O=C(NO)NCCCl	> 200 µM	> 200 µM	
[N-]=[N+]=NC1=C(c2ccccn2)C(=O)c2cccc3cccc1c23	> 200 µM	4.17 µM	
CCCc1ccc(N=Cc2cc(OC)c(OC)c(OC)c2)cc1	> 31.6 µM	> 31.6 µM	
CC(CO)/[N+]([O-])=N/O (stereo not given)	> 479 µM		
CC(C)CC(NC=O)C(=O)NC(Cc1ccccc1)NC(=O)CNC(=O)C(C)NC(=O)C(N)Cc1ccc(O)cc1 (stereo not given)	141 µM	151 µM	
CC(C)(C)NC1=NC(C(F)(F)F)(C(F)(F)F)NC(=O)N1	> 200 µM	70.8 µM	
NS(=O)(=O)c1ccc(NC(=O)c2cccc3cc4ccccc4nc23)cc1	> 79.4 µM	4.79 µM	
FC(F)(F)c1cc(C2SCc3nc4ccccc4n32)cc(C(F)(F)F)c1 (stereo not given)	> 41.7 µM	7.08 µM	
C/C(=N/Nc1ccc([N+](=O)[O-])cc1[N+](=O)[O-])c1ccc(Sc2ccc(/C(C)=N/Nc3ccc([N+](=O)[O-])cc3[N+](=O)[O-])cc2)cc1	> 50.1 µM	> 50.1 µM	
COC(=O)CCC(=O)Nc1cc(Cl)ccc1Cl	> 468 µM	> 468 µM	
Cc1[nH]n(C(=O)c2ccc(Cl)cc2)c(=O)c1/C=C1\C(O)=CC(=O)c2ccccc21	> 12.9 µM	> 12.9 µM	
CCCCn1c(=O)c(N=O)c(N)n(CC)c1=O	> 200 µM	174 µM	
COc1ccc2c(c1OC)C(=O)OC2c1c2c(c(OC)c3c1OCO3)C(C1OC(=O)c3c1ccc(OC)c3OC)N(C)CC2 (stereo not given)			inactive

SMILES	EC50	IC50	outcome
CC1=C(\C=C/C(C)=C/C=C/C(C)=C/C=C/C=C(C)\C=C\C=C(C)/C=C/C2=C(C)CCCC2(C)C)C(C)(C)CCC1	> 200 µM	97.7 µM	
CCOC1CC(C)N(C(=O)c2ccccc2)O1 (stereo not given)	> 200 µM	> 200 µM	
C=C1C(=O)OC(CCCCC)C1C(=O)O (stereo not given)			inactive
CCOC(=O)C(C)(c1c(C)n(C)c2ccccc12)c1c(C)n(C)c2ccccc12	> 200 µM	> 100 µM	
NC(=O)OCC(O)COc1ccc(Cl)cc1 (stereo not given)	> 200 µM	> 200 µM	
C[C@H](OCc1ccccc1)C(=O)N1CCS(=O)(=O)N2CCC[C@@H]2C1=O	> 490 µM	> 490 µM	
O=C(O)c1c(Cl)c(Cl)c(Cl)c(Cl)c1-c1c2ccc(=O)c(O)c-2oc2c(O)c(O)ccc12	> 83.2 µM	51.3 µM	
COc1ccc2c(c1)OCC1Cc3ccccc3OC21 (stereo not given)	> 200 µM	53.7 µM	
CCN1CCC(O)(/C=C/c2ccc(C(C)C)cc2)C(C(=O)/C=C/c2ccc(C(C)C)cc2)C1 (stereo not given)	> 200 µM	1.78 µM	
COc1ccc(NCc2cnc3nc(N)nc(N)c3c2C)cc1	> 200 µM	0.437 µM	
CC(C)C(NC(=O)C1CCCN1C(=O)OCc1ccccc1)C(=O)O (stereo not drawn) (Cbz-Pro-Val-OH; configuration not given here)	> 724 µM	> 724 µM	
OCCN1C(c2ccccc2)=CN2C=CSC21 (stereo not given)	> 200 µM	29.5 µM	
O=S(=O)(N(c1ccc(Cl)cn1)S(=O)(=O)C(F)(F)F)C(F)(F)F	> 200 µM	> 200 µM	
COc1ccc(C2(OC)Oc3cc(OC)ccc3C(=O)C2(O)O)cc1 (stereo not given)	> 200 µM	10.7 µM	
O=C(NC1C/C(=N/O)c2c(Br)sc(Br)c21)C(F)(F)F (stereo not given)	> 200 µM	53.7 µM	
COC1=C(C)C(=O)C2C(C1=O)C(c1ccc(OC)c(OC)c1)[C@H]2C (stereo not given in full)	> 151 µM	135 µM	
CN(/N=C/c1cccs1)c1ccc(Cl)cc1[N+](=O)[O-]	> 200 µM	60.3 µM	
